{"source": "ChEMBL document CHEMBL5465560", "about": "“Selectivity Literature for EUbOPEN Chemogenomic Library” (2024)", "key": {"[1]": {"target": "T1, Calcium/calmodulin-dependent protein kinase type IV (Homo sapiens) (UniProt Q16566)", "T1 sequence (whole entry)": "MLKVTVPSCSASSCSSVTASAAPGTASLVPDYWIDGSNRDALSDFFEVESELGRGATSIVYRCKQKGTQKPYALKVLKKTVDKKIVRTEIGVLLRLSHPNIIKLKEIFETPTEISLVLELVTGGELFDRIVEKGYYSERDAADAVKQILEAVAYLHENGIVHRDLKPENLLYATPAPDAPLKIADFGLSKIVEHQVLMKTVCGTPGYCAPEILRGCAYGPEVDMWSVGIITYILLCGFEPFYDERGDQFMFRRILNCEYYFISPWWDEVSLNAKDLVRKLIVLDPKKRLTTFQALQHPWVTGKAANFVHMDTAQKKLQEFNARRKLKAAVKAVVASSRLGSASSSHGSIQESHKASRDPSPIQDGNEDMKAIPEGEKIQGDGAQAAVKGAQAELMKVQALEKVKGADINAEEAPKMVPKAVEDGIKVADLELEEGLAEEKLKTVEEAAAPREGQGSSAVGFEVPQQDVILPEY", "experiment": "Selectivity interaction (Kinase panel (DSF assay)) EUB0001558a CAMK4"}, "[2]": {"target": "Mitogen-activated protein kinase 3 (Homo sapiens, UniProt P27361)", "sequence (P27361 whole entry)": "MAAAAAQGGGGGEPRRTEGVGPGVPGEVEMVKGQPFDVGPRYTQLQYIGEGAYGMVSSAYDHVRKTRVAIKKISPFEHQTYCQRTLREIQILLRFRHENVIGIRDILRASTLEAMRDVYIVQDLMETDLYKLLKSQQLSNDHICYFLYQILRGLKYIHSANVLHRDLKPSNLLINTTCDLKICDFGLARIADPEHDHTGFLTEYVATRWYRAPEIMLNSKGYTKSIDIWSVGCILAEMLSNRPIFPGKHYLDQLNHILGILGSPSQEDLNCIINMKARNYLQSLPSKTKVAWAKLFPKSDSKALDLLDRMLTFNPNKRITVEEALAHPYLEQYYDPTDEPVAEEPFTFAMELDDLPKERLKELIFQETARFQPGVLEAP", "experiment": "Selectivity interaction (KinomeScan (DiscoverX)) EUB0000229b MAPK3", "settings": "at 10 µM"}, "[3]": {"target": "Mitogen-activated protein kinase 4 (Homo sapiens) (UniProt P31152)", "sequence (P31152 whole entry)": "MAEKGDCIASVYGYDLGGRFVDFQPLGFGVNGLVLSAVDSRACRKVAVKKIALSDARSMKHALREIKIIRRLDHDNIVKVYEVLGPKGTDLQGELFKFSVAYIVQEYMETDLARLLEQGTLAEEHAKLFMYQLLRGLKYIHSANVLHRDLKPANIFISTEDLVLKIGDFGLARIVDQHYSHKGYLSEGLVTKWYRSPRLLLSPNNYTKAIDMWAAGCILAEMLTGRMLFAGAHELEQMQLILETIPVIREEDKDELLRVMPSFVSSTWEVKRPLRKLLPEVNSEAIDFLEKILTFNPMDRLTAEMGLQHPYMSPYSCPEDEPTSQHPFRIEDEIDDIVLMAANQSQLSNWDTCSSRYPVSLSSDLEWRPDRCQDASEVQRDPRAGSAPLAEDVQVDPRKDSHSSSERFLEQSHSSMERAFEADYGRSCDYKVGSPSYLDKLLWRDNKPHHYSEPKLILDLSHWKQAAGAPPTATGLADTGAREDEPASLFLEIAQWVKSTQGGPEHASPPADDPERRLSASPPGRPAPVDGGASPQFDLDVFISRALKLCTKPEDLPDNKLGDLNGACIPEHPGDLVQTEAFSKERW", "experiment": "Selectivity interaction (KinomeScan (DiscoverX)) EUB0000229b MAPK4", "settings": "at 10 µM"}, "[4]": {"target": "T2, Activin receptor type-1B (Homo sapiens) (UniProt P36896)", "T2 sequence (whole entry)": "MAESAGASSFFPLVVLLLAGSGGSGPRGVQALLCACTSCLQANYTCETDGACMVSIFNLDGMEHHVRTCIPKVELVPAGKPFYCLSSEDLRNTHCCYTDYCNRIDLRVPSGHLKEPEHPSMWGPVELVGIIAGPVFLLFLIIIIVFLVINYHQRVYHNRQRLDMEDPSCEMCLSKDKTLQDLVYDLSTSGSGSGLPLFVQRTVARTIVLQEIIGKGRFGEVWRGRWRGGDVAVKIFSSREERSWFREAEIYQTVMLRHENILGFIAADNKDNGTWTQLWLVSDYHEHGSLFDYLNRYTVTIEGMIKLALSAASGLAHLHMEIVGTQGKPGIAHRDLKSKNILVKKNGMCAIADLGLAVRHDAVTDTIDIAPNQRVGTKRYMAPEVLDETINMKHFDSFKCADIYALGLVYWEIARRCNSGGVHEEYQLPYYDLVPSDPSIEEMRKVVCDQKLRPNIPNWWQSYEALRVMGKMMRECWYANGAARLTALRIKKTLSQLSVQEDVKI", "experiment": "Selectivity interaction (Upstate Kinase Profiler service (Millipore)) EUB0000056c ACVR1B", "settings": "at 1 µM"}, "[5]": {"target": "Coiled-coil domain-containing protein 6/Tyrosine-protein kinase receptor RET (Homo sapiens) (UniProt P07949+Q16204)", "sequence (P07949 29-1114 limits assumed)": "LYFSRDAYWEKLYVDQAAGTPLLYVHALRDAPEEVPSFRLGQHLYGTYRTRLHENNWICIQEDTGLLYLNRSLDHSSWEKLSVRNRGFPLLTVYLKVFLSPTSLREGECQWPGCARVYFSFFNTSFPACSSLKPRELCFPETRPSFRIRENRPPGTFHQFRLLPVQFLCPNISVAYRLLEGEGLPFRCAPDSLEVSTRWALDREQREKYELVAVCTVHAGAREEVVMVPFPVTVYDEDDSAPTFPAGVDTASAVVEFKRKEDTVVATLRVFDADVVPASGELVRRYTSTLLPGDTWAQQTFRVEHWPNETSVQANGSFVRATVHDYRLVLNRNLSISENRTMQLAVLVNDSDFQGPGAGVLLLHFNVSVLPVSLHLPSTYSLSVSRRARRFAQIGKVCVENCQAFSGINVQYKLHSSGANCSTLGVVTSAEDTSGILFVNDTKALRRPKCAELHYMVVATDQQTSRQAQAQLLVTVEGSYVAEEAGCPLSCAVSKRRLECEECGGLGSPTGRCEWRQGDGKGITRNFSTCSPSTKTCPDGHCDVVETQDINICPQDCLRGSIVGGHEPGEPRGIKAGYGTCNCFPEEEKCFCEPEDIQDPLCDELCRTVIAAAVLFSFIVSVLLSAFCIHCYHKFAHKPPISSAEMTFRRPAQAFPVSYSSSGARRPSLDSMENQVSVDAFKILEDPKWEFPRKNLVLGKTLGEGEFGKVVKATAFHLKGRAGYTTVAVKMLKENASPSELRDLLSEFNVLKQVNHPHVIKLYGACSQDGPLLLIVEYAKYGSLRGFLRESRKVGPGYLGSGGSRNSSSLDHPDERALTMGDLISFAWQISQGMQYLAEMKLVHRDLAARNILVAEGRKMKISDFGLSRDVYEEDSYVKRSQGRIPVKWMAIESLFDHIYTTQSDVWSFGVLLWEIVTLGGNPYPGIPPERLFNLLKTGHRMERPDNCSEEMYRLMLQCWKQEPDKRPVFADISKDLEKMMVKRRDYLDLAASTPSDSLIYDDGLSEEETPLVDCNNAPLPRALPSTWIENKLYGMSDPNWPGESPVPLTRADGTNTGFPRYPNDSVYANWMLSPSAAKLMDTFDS", "sequence (Q16204 2-474 partner limits assumed)": "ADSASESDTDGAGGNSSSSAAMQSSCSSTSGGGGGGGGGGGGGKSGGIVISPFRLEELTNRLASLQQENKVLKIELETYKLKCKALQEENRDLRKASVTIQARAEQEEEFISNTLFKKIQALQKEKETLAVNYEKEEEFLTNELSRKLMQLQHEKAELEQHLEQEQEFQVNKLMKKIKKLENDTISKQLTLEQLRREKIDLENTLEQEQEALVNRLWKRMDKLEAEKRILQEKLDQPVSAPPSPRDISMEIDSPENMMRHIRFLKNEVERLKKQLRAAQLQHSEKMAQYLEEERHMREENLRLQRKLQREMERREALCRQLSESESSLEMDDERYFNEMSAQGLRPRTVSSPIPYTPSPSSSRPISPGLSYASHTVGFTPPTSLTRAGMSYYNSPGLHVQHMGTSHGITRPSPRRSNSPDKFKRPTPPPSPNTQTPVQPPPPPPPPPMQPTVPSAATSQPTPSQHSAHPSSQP", "experiment": "Selectivity interaction (ProQinase) EUB0000171b RET", "type": "protein assay"}, "[6]": {"target": "Serine/threonine-protein kinase PLK2 (Homo sapiens, UniProt Q9NYY3)", "sequence (Q9NYY3 whole entry, looked up)": "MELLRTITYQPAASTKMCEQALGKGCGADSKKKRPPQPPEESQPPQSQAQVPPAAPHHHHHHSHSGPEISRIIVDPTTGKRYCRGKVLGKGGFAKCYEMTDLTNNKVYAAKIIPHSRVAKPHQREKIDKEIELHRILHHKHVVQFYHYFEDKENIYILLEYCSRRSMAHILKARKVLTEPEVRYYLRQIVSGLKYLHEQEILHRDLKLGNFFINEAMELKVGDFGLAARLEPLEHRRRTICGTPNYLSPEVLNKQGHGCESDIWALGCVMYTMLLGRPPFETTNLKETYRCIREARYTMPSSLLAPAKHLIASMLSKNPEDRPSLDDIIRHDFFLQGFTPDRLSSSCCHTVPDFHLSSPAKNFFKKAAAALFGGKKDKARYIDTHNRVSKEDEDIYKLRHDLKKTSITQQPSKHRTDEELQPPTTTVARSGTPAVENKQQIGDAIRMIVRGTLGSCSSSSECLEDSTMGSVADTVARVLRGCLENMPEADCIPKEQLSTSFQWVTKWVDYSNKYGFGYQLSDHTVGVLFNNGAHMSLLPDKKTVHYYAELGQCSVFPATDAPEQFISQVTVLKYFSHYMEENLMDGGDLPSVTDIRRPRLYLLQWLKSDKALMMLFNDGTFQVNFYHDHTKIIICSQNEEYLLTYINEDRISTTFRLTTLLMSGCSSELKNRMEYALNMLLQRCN", "experiment": "Selectivity interaction (KinomeScan (DiscoverX)) EUB0001079a PLK2", "settings": "at 1 µM"}, "[7]": {"target": "Calcium/calmodulin-dependent protein kinase type 1D (Homo sapiens) (UniProt Q8IU85)", "sequence (Q8IU85 whole entry, looked up)": "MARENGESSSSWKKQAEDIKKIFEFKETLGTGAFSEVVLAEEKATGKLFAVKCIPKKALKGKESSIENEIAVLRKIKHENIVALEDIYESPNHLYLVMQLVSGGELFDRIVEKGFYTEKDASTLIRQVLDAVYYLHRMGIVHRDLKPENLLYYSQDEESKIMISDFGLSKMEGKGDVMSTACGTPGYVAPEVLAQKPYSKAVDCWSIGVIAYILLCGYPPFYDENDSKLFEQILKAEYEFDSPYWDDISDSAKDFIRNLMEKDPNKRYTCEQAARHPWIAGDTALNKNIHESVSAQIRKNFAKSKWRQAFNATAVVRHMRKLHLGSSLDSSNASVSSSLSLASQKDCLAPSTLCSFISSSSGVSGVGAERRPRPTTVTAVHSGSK", "experiment": "Selectivity interaction (KinomeScan (DiscoverX)) EUB0000666a CAMK1D", "settings": "at 10 µM"}, "[8]": {"target": "T3, Mitogen-activated protein kinase kinase kinase 5 (Homo sapiens) (UniProt Q99683)", "T3 sequence (whole entry)": "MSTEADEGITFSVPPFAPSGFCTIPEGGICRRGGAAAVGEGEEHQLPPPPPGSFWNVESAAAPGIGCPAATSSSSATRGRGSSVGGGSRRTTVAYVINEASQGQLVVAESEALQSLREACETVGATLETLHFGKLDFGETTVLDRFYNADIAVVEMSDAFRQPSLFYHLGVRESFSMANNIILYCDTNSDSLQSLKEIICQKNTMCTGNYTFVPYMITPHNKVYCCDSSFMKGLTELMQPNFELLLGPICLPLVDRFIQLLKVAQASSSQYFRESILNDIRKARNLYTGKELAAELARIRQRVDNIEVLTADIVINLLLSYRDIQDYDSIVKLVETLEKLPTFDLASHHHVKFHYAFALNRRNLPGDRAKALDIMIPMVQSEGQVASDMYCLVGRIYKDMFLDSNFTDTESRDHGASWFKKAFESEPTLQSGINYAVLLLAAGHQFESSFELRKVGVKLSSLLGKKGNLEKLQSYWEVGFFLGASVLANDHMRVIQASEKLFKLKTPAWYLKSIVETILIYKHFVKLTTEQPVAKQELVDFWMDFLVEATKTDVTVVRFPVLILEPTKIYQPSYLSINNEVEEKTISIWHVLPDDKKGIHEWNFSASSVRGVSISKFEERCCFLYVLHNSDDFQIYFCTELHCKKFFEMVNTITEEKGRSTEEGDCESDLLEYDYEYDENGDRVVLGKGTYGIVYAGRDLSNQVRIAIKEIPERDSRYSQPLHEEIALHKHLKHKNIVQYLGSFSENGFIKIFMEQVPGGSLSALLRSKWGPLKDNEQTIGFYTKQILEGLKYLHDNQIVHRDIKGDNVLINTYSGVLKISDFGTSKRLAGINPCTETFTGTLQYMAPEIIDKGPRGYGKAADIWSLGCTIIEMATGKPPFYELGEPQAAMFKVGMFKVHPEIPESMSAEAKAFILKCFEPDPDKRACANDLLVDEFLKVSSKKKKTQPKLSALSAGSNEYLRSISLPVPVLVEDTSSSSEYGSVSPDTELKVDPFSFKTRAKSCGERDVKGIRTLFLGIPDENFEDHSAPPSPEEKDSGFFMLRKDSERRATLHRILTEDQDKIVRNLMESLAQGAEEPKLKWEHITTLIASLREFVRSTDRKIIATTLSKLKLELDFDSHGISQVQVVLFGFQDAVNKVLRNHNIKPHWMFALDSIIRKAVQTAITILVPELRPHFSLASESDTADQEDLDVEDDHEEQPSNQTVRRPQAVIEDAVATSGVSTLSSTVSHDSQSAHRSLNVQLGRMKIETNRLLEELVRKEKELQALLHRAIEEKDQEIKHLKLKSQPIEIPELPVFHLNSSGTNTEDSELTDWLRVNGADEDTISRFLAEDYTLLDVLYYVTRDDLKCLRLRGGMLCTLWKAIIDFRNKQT", "settings": "at 10 µM"}, "[9]": {"target": "Serine/threonine-protein kinase 25 (Homo sapiens) (UniProt O00506)", "sequence (O00506 whole entry, looked up)": "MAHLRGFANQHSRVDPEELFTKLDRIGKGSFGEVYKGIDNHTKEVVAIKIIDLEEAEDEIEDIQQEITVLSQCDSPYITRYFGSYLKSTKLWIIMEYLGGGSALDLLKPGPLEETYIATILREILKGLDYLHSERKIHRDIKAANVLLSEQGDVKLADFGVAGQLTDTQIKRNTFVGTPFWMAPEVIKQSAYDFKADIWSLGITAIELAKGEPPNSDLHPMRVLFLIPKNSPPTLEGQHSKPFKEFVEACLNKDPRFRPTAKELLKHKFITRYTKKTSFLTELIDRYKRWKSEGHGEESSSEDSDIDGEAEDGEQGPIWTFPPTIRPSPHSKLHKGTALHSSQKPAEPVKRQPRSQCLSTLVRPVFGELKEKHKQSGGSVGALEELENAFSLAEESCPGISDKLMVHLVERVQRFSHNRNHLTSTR", "experiment": "Selectivity interaction (Kinase panel (Z-LYTE Assay)) EUB0001632a STK25", "settings": "at 10 µM"}}}
{"compound": "CC(C)(O)[C@H](F)CN1Cc2cc(NC(=O)c3cnn4cccnc34)c(N3CCOCC3)cc2C1=O", "values": [{"measurement": "dTM", "setting": "[1]", "result": 1, "unit": "K"}]}
{"compound": "COc1cc(N(C)c2ccnc3ccc(C(F)(F)F)cc23)cc(OC)c1OC", "values": [{"measurement": "% binding", "setting": "[2]", "result": 100, "unit": "%"}, {"measurement": "% binding", "setting": "[3]", "result": 93, "unit": "%"}]}
{"compound": "Cc1ccc(-c2ccc3c(ccc4sc5c(c43)NC[C@@H](C)NC5=O)n2)cn1", "values": [{"measurement": "% of inhibition", "setting": "[4]", "result": 9, "unit": "%"}]}
{"compound": "C=CC(=O)Nc1cccc(C(=O)Nc2ccc(Nc3cc(-c4[nH]c(SC)nc4C)ccn3)cc2)c1", "values": [{"measurement": "% of control", "setting": "[5]; at 1 µM", "result": 84, "unit": "%"}, {"measurement": "% of control", "setting": "[5]; at 5 µM", "result": 84, "unit": "%"}]}
{"compound": "Nc1cnc(N2CCc3cc(S(=O)(=O)Nc4c(F)cc(Cl)cc4F)cc(N4CCCC4=O)c32)nc1", "note": "[TP-020n]", "values": [{"measurement": "% of control", "setting": "[6]", "result": 100, "unit": "%"}]}
{"compound": "O=C(NOC[C@H](O)CO)c1ccc(F)c(F)c1Nc1ccc(I)cc1F", "values": [{"measurement": "% of control", "setting": "[7]", "result": 89, "unit": "%"}]}
{"compound": "Cc1cc([C@@H](C)Nc2ccccc2C(=O)O)c2nc(N3CCOCC3)cc(=O)n2c1", "note": "[AZD-6482]", "values": [{"measurement": "% of control", "setting": "[8]", "result": 100, "unit": "%"}]}
{"compound": "Cn1cc(-n2cnc3c(NCc4nc5cc(Cl)c(Cl)cc5[nH]4)nc(N4CCOCC4)nc32)cn1", "values": [{"measurement": "% of control", "setting": "[9]", "result": 17.9, "unit": "%"}]}
